Where “and” joins values, the source holds several entries; their conditions need not be identical. Identical values can stand only once.
Legend:
[1] = target: T1, HsOAT1 truncation (lacks last 10 amino acids) (Homo sapiens, UniProt Q4U2R8); experiment: Cell-based 6-CF transport assay, truncated HsOAT1 lacking the last 10 amino acids; details: Truncation (+P), 0.1 mM pemetrexed
T1 construct: expressed in transfected cells; host or cells: HeLa
T1 sequence (Q4U2R8 1-552 limits assumed): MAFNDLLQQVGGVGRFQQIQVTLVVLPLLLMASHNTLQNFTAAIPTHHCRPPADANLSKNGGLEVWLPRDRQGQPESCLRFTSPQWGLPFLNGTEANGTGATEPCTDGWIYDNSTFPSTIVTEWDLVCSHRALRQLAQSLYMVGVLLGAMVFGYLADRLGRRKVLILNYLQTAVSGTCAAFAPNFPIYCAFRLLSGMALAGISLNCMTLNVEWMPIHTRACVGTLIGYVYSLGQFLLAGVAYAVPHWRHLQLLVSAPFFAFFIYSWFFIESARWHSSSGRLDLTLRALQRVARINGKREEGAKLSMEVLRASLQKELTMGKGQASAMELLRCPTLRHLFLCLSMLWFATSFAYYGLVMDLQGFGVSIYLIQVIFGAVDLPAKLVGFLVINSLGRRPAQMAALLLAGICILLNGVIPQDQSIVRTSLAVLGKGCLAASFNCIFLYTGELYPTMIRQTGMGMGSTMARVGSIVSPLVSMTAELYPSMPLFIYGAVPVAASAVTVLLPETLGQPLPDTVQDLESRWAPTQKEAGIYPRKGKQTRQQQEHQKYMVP

[2] = target: T2, wild-type human OAT1 (HsOAT1) (Homo sapiens, UniProt Q4U2R8); experiment: Cell-based 6-CF transport assay, wild-type HsOAT1 in HeLa cells; details: for 6-CF uptake, MEAN: WT (+P), 0.1 mM pemetrexed; for effect on OAT1 transport: 10 mM sodium phosphate; for 6-CF transport in presence of dicarboxylate, single experiments: dicarboxylate 0.5 mM, 8 minutes, n = 8
T2 sequence (Q4U2R8 1-563): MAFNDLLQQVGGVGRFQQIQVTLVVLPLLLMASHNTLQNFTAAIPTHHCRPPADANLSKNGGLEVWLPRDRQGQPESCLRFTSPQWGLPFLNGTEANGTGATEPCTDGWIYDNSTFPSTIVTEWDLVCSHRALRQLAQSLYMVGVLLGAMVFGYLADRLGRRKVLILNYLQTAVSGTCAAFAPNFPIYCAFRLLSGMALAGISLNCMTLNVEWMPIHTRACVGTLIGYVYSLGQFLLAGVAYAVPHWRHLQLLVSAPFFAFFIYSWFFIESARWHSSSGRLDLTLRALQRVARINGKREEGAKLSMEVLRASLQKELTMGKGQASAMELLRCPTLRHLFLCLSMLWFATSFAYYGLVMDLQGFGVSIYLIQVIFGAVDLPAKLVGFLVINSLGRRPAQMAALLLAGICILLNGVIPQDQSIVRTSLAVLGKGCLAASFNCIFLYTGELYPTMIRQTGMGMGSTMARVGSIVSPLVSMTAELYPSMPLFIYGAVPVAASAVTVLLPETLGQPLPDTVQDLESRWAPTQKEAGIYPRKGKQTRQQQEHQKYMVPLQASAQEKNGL
Method: To assay HsOAT1 transporter activity the model substrate 6-carboxyfluorescein (6-CF)[46],[47]
For transport assays, 1 × 10^5 cells per well were seeded into 24-well plates and 24 h later transfected using FUGENE HD (Promega E2311) Transfection Reagent (0.4 μg DNA per 1 μl of FUGENE per well) with HsOAT1 constructs containing a C-terminal FLAG tag in the vector pCDNA3.1 for 36 h. Expression of each mutant of HsOAT1 was assessed through western blotting on membrane fractions using an anti-FLAG antibody 1:3,000 dilution (Merck F1804), using a loading control of anti-β-actin 1:5,000 dilution (Merck A2228) (Extended Data Fig. 4). […] Background fluorescence was subtracted from cells transfected with the empty plasmid, and the data were normalized to 100%. To assess the activity of HsOAT1 in the presence and absence of chloride, the buffer was 120 mM NaCl, 28 mM glucose and 25 mM HEPES, pH 7.2 or for chloride-free conditions, and 120 mM sodium gluconate was used. […] To study the effect of ligands or inhibitors, the compound of interest was added to the assay buffer at the desired concentration. […] Each concentration was repeated three times to calculate standard errors, and the whole experiment was repeated three times to calculate the mean IC50 and standard error.

[3] = target: T3, Biotinylated RnOat1 with a C-terminal Avi-tag followed by a FLAG tag (Rattus norvegicus, UniProt O35956, biotin (on the Avi-tag, by GST-BirA)); experiment: BLI; Octet Red 384; who was immobilised and the buffer are not told; n = 4 independent experiments; details: both partners purified
T3 construct: Organic anion transporter 1 (Oat1, Slc22a6) of Rattus norvegicus; Used for the sybody selection; The host is likely Sf9 as for the structural construct (surmise); also called C-terminally Avi-Flag-tagged and biotinylated RnOat1; not shown: Avi-tag, C-terminal, kept

RnOat1 = target: T4, RnOat1 (Rattus norvegicus, UniProt O35956); experiment: Sybody binding by biolayer interferometry; design: unit not given here
T4 construct: made in house; host or cells: Sf9 insect cells (baculovirus)
T4 sequence (O35956 1-551): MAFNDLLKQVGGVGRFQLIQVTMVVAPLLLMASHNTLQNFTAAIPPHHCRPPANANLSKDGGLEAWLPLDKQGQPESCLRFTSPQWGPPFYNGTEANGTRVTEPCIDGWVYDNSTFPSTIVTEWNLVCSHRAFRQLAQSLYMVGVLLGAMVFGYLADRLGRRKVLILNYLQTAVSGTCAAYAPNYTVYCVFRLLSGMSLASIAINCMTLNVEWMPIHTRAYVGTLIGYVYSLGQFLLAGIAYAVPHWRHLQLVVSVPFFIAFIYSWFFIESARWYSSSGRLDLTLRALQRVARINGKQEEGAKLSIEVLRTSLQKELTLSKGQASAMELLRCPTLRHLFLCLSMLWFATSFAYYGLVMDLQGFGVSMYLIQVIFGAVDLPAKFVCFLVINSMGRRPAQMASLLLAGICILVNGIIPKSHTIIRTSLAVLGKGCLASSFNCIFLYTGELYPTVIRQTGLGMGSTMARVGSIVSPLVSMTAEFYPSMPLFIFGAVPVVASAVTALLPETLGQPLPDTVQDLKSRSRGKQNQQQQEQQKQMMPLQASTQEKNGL
Method: Sybody selection was performed against C-terminally Avi-Flag-tagged and biotinylated RnOat1 using methods described previously in ref. [48]. A high-affinity sybody with a slow off rate, as measured using biolayer interferometry (Octet Red 384), was identified from the concave library. The sybody was cloned and expressed as a C-terminally MycHis tagged construct from the pSB-init vector (Addgene no. 110100), (pSB_Syb25 Addgene no. 197992).

## Nc1nc2[nH]cc(CCc3ccc(C(=O)N[C@@H](CCC(=O)O)C(=O)O)cc3)c2c(=O)[nH]1 [pemetrexed]
[1]; 1 min
  6-CF uptake, MEAN: 19.52
[1]; 5 min
  6-CF uptake, MEAN: 17.65
[1]; 8 min
  6-CF uptake, MEAN: 16.52
[1]; 10 min
  6-CF uptake, MEAN: 12.32
[2]; 0.1 mM in assay buffer
  inhibition of 6-CF uptake: fully inhibited
[2]; 0.5 mM, uptake after 8 minutes, similar to literature ref 20
  substrate quality in 6-CF assay: poor substrates
[2]; 1 min
  6-CF uptake, MEAN: 22
[2]; 5 min
  6-CF uptake, MEAN: 18.75
[2]; 8 min
  6-CF uptake, MEAN: 24.75
[2]; 10 min
  6-CF uptake, MEAN: 17.25
[2]; substrate 0.5 mM, uptake after 8 minutes
  6-CF uptake in presence of substrate, single experiments: 71%

## O=P(O)(O)O [phosphate, sodium phosphate]
[2]
  effect on OAT1 transport: no impact
[2]; listed as sodium phosphate
  effect on OAT1 transport: no effect

## O=C(O)CCCCCC(=O)O [pimelate]
[2]
  6-CF transport in presence of dicarboxylate, single experiments: 18.1607% and 12.7635% and 14.6181% and 17.3198% and 16.4606% and 11.6692%

## O=C(O)CCC(=O)O [succinate]
[2]
  6-CF transport in presence of dicarboxylate, single experiments: 62.6553% and 71.4816% and 66.0745% and 69.225% and 69.843% and 74.8162% and 55.8733% and 76.8934%

B1: Sybody (synthetic nanobody) against RnOat1, Syb25 (VHH)
VHH: QVQLVESGGGLVQAGGSLRLSCAASGFPVKTEWMEWYRQAPGKEREWVAAIWSYGSGTRYADSVKGRFTISRDNAKNTVYLQMNSLKPEDTAVYYCLVRVGSWYHGQGTQVTVSA
notes: selected from the concave sybody library; source: expressed from the pSB-init vector
[3]
  Kd: 75 nM
RnOat1; Conc. 7.81 nM
  binding response (ED Fig 3e source data): 0.004
RnOat1; Conc. 15.625 nM
  binding response (ED Fig 3e source data): 0.0165
RnOat1; Conc. 31.25 nM
  binding response (ED Fig 3e source data): 0.04633
RnOat1; Conc. 62.5 nM
  binding response (ED Fig 3e source data): 0.1353
RnOat1; Conc. 250 nM
  binding response (ED Fig 3e source data): 0.201
RnOat1; Conc. 500 nM
  binding response (ED Fig 3e source data): 0.2162
RnOat1; Conc. 1000 nM
  binding response (ED Fig 3e source data): 0.2225
RnOat1; Conc. 2000 nM
  binding response (ED Fig 3e source data): 0.23
